One assay concerns the target T1, 17HSD type-2 enzyme (Homo sapiens, UniProt P37059).
T1 construct: expressed in transfected cells; host or cells: MCF-7 cells stably expressing 17HSD type 2
T1 sequence (P37059 1-387): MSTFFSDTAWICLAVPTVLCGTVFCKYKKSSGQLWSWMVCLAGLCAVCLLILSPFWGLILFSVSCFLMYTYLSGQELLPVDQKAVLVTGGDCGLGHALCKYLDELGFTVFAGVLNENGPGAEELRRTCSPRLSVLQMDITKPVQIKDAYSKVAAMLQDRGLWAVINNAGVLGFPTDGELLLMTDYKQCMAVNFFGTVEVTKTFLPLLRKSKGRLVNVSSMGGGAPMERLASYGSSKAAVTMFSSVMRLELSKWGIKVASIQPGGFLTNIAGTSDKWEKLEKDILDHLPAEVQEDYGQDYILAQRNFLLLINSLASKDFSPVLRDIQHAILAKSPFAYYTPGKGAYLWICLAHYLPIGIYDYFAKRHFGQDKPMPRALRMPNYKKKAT
The experiment in a line: 17HSD type 2 inhibition in MCF-7 cells stably expressing 17HSD type 2 (HPLC detection). Format: cell-based. The following applies: MCF-7 cells expressing 17HSD type 2; concentration not given. The source says: (§1) The tested compounds (about 1000 selected different compounds) were screened in respect of 17HSD enzyme activities according to the following method:
(§2) The compounds were screened in respect of 17HSD enzyme activities in vitro on two established MCF-7 cell lines, each stably expressing one 17HSD isoenzyme, either 17HSD type 1 or 17HSD type 2, but not the other one. The interconversion of substrate by each isoenzyme and the HSD-inhibiting activity of chemical compounds in these cell lines was detected by HPLC system (Miettinen et al., Int J Cancer (1996) 68, 600-604).
(§3) Varying amounts of the test compounds were incubated in the growth medium of the 17HSD expressing cells together with tritium labeled substrate (estrone for 17HSD type 1 enzyme; 20 nM). The medium samples were removed after exact incubation time and the reaction was stopped by deepfreezing. The samples were analyzed by HPLC-coupled flow scintillation analysis. The 17HSD-inhibiting activity of the test compounds was compared to known reference compound apigenin and to a negative control.

For another assay, the target named is T2, 17HSD type 1 (Homo sapiens, UniProt P14061).
T2 sequence (P14061 1-328): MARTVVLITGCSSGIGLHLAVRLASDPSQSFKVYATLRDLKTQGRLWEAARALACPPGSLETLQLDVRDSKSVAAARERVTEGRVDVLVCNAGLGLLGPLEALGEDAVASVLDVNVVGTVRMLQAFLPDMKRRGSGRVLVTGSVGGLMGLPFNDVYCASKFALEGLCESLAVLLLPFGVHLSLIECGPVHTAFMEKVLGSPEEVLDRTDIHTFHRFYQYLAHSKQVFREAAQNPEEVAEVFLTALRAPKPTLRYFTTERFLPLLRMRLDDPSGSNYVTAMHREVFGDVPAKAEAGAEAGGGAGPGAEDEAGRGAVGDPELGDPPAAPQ
The experiment in a line: 17HSD type 1 inhibition in MCF-7 cells stably expressing 17HSD type 1 (HPLC detection of tritium labeled estrone conversion). Format: cell-based. Further details: expressed in transfected cells; host or cells: MCF-7 cells stably expressing 17HSD type 1. The following applies: MCF-7 cells expressing 17HSD type 1, substrate estrone 20 nM.
Excerpt: as §1, §2, §3

For orientation: inhibition means the share of the control response that was lost under treatment. Regarding `O=c1cc(-c2ccc(O)cc2)oc2cc(O)cc(O)c12` [apigenin], the “inhibition of the 17HSD type-2 enzyme” value against 17HSD type-2 enzyme came to 5%. On 17HSD type 1 (MCF7, concentration 1 μM), this compound registered an inhibition at 1 µM of 48%.
As to `O=CC1=C(Sc2ccccc2)c2sc3nc4n(c(=O)c3c2CC1)CCCCC4` [Compound A], the “inhibition of the 17HSD type-2 enzyme” value against 17HSD type-2 enzyme is “did not show any inhibition effect”. For the same compound, the “inhibition of the 17HSD type 1 enzyme” value against 17HSD type 1 (concentration 1 μM) is 80%; against 17HSD type 1 (concentration 10 μM) it was 95%.

Source of the values: US20060057628A1, “Method for prognosticating the progress of breast cancer and compounds useful for prevention or treatment thereof” (priority 2003, published 2006).
